Data from PubChem BioAssay AID220 (DTP/NCI, 2004).
Where “and” joins values, the source holds several entries; their conditions need not be identical. Identical values can stand only once. Inconclusive results are not listed.

System: CD8F1 mice, subcutaneous mammary adenocarcinoma, T/C%
Test: NCI In Vivo Anticancer Drug Screen. Data for tumor model Mammary Adenocarcinoma CD8F1 (subcutaneous) in CD8F1
Conditions: higher = larger tumour
Experimental: The antitumor activity of compounds was measured in mice bearing transplantable tumors. Survival or tumor size were measured and the results are expressed as the measurement made in the treated group (T) divided by the measurement made in the vehicle treated control group (C). The tumor model used in this assay is Mammary Adenocarcinoma CD8F1 (subcutaneous) in CD8F1

What does the source list for `O=P(O)(NCCCl)NCCCl`?
T/C (endpoint: median tumor weight change, dose: 25.0 mg/kg/injection, schedule: Q01DX001 (ip), vehicle: saline): 49 % of control; T/C (endpoint: median tumor weight change, dose: 50.0 mg/kg/injection, schedule: Q01DX001 (ip), vehicle: saline): 97 % of control; T/C (endpoint: median tumor weight change, dose: 50.0 mg/kg/injection, schedule: Q01DX001 (ip), vehicle: suspension in saline): -39 % of control; T/C (endpoint: median tumor weight change, dose: 100.0 mg/kg/injection, schedule: Q01DX001 (ip), vehicle: saline): 41 % of control; T/C (endpoint: median tumor weight change, dose: 200.0 mg/kg/injection, schedule: Q01DX001 (ip), vehicle: saline): -56 % of control

What does the source list for `CC1=C(C)C(=O)O[C@@H]([C@](C)(O)[C@]2(O)CC[C@@]3(O)[C@@H]4C[C@H]5O[C@]56[C@@H](O)C=CC(=O)[C@]6(C)[C@H]4CC[C@]23C)C1`?
T/C (endpoint: median tumor weight change, dose: 18.75 mg/kg/injection, schedule: Q01DX001 (ip), vehicle: saline): 104 % of control; T/C (endpoint: median tumor weight change, dose: 37.5 mg/kg/injection, schedule: Q01DX001 (ip), vehicle: saline): 63 % of control; T/C (endpoint: median tumor weight change, dose: 75.0 mg/kg/injection, schedule: Q01DX001 (ip), vehicle: saline): 61 % of control

What does the source list for `Clc1ccc2nnnn2n1`?
T/C (endpoint: median tumor weight change, dose: 125.0 mg/kg/injection, schedule: Q01DX001 (ip), vehicle: saline with Tween-80): 49 % of control; T/C (endpoint: median tumor weight change, dose: 250.0 mg/kg/injection, schedule: Q01DX001 (ip), vehicle: saline with Tween-80): 61 % of control

Which T/C (endpoint: median tumor weight (est.), dose: 0.31 mg/kg/injection, schedule: Q07DX005 (ip), vehicle: saline) does the source give for `NC(=O)c1[nH]nc(C2OC(CO)C(O)C2O)c1O` (stereo unspecified) here?
Its T/C is 123 % of control.

What about the T/C (endpoint: median tumor weight (est.), dose: 0.62 mg/kg/injection, schedule: Q07DX005 (ip), vehicle: saline) of the same compound?
The T/C was 85 % of control.

And the T/C (endpoint: median tumor weight (est.), dose: 1.25 mg/kg/injection, schedule: Q07DX005 (ip), vehicle: saline)?
The T/C was 77 % of control.

What about the T/C (endpoint: median tumor weight (est.), dose: 2.5 mg/kg/injection, schedule: Q07DX005 (ip), vehicle: saline) of the same compound?
The T/C was 28 % of control.

What about the T/C (endpoint: median tumor weight (est.), dose: 5.0 mg/kg/injection, schedule: Q07DX005 (ip), vehicle: saline) of the same compound?
Its T/C is 53 % of control.

And the T/C (endpoint: median tumor weight (est.), dose: 10.0 mg/kg/injection, schedule: Q07DX005 (ip), vehicle: saline)?
Its T/C is 29 % of control.

What does the source list for `CCN1C=C/C(=C\C=C/c2cc[n+](CC)c3ccccc23)c2ccccc21`?
T/C (endpoint: median tumor weight (est.), dose: 0.06 mg/kg/injection, schedule: Q07DX005 (ip), vehicle: saline): 123 % of control; T/C (endpoint: median tumor weight (est.), dose: 0.06 mg/kg/injection, schedule: Q07DX005 (ip), vehicle: suspension in saline): 104 % of control; T/C (endpoint: median tumor weight (est.), dose: 0.12 mg/kg/injection, schedule: Q07DX005 (ip), vehicle: saline): 88 % of control; T/C (endpoint: median tumor weight (est.), dose: 0.12 mg/kg/injection, schedule: Q07DX005 (ip), vehicle: suspension in saline): 83 % of control; T/C (endpoint: median tumor weight (est.), dose: 0.25 mg/kg/injection, schedule: Q07DX005 (ip), vehicle: saline): 150 % of control; T/C (endpoint: median tumor weight (est.), dose: 0.25 mg/kg/injection, schedule: Q07DX005 (ip), vehicle: suspension in saline): 119 % of control; T/C (endpoint: median tumor weight (est.), dose: 0.5 mg/kg/injection, schedule: Q07DX005 (ip), vehicle: saline): 109 % of control; T/C (endpoint: median tumor weight (est.), dose: 1.0 mg/kg/injection, schedule: Q07DX005 (ip), vehicle: saline): 101 % of control; T/C (endpoint: median tumor weight (est.), dose: 1.0 mg/kg/injection, schedule: Q07DX005 (ip), vehicle: suspension in saline): 75 % of control

For `O=C1C2(Cl)C3(Cl)C4(Cl)C(Cl)(Cl)C5(Cl)[C@]3(Cl)C1(Cl)[C@]5(Cl)C24Cl` (stereo partly specified), which T/C (endpoint: median tumor weight (est.), dose: 12.5 mg/kg/injection, schedule: Q07DX005 (ip), vehicle: Klucel (hydroxypropylcellulose) (HPC)) is on record?
Its T/C is 71 % of control.

And the T/C (endpoint: median tumor weight (est.), dose: 25.0 mg/kg/injection, schedule: Q07DX005 (ip), vehicle: Klucel (hydroxypropylcellulose) (HPC))?
Its T/C is 91 % of control.

What about the T/C (endpoint: median tumor weight (est.), dose: 50.0 mg/kg/injection, schedule: Q07DX005 (ip), vehicle: Klucel (hydroxypropylcellulose) (HPC)) of the same compound?
The T/C was 67 % of control.

Which T/C (endpoint: mean tumor weight, dose: 25.0 mg/kg/injection, schedule: Q04DX009 (ip), vehicle: saline) does the source give for `C[CH2][Ge]1([CH2]C)[CH2]CC2(CCN(CCCN(C)C)C2)C[CH2]1` here?
Its T/C is 113 % of control.

What about the T/C (endpoint: mean tumor weight, dose: 50.0 mg/kg/injection, schedule: Q04DX009 (ip), vehicle: saline) of the same compound?
Its T/C is 87 % of control.

What about the T/C (endpoint: mean tumor weight, dose: 100.0 mg/kg/injection, schedule: Q04DX009 (ip), vehicle: saline) of the same compound?
Its T/C is 40 % of control.

What about the T/C (endpoint: median tumor weight (est.), dose: 2.0 mg/kg/injection, schedule: Q07DX005 (ip), vehicle: saline) of the same compound?
Its T/C is 67 % of control.

And the T/C (endpoint: median tumor weight (est.), dose: 4.0 mg/kg/injection, schedule: Q07DX005 (ip), vehicle: saline)?
The T/C was 57 % of control.

What about the T/C (endpoint: median tumor weight (est.), dose: 16.0 mg/kg/injection, schedule: Q07DX005 (ip), vehicle: saline) of the same compound?
The T/C was 74 % of control.

And the T/C (endpoint: median tumor weight (est.), dose: 32.0 mg/kg/injection, schedule: Q07DX005 (ip), vehicle: saline)?
Its T/C is 55 % of control and 68 % of control.

And the T/C (endpoint: median tumor weight (est.), dose: 64.0 mg/kg/injection, schedule: Q07DX005 (ip), vehicle: saline)?
The T/C was 67 % of control and 77 % of control.
